From US6709830B2, “Methods for modulating the activation of a lymphocyte expressed G protein coupled receptor involved in cell proliferation, autoimmunity and inflammation” (The Regents of the University of California, priority 1997, dated 2004)
“Also recorded” adds a separate entry of the source.

What was measured:
G2A [1] = target: T1, G2A (Mus musculus, UniProt Q9Z282); assay: Radioligand binding assay with cell homogenates of HEK 293 G2A.GFP cells; conditions: HEK 293 G2A.GFP cell homogenate
T1 construct: expressed in transfected cells; host or cells: MCF 10A (human breast epithelial cells, no endogenous G2A), plasmid pEXV3 G2A.GFP
T1 sequence (Q9Z282 1-382): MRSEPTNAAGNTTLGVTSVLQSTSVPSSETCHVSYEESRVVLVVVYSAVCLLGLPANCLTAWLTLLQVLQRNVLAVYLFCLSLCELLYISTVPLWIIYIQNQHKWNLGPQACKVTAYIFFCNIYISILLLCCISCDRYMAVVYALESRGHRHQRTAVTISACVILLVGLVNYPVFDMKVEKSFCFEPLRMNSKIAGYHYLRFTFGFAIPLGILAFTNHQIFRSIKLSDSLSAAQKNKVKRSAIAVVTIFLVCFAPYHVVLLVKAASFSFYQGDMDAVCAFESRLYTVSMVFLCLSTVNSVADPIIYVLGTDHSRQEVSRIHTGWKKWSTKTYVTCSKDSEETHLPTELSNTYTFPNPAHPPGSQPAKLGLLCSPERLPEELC
Description: To characterise the binding of LPC and SPC to G2A, we performed radioligand binding assays as described previously (Xu, Y, e al, Nature Cell Biology, 2: pp261-267, 2000). [^3H] 16:0 LPC and [^3H] SPC bound to cell homogenates from G2A expressing HEK 293 cells in a time-dependent manner and reached equilibrium after 60 minutes incubation at 4° C. (FIGS. 5A and B). […] LPC and [^3H] SPC. Binding of [^3H] LPC and [^3H] […] The maximum binding capacities for LPC and SPC were approximately 1,503 fmole/10^5 cells and 1,840 fmole/10^5 cells respectively.
Binding assay HEK 293 GFP or HEK 293 G2A.GFP cells were serum starved for 20 hours and subsequently collected in PBS/EDTA. Pelleted cells were stored at −80° C. until use. Frozen cells (10^6 cells/ml) were homogenized in “binding buffer” containing 20 mM Tris-HCl pH 7.5, 100 mM NaCl, 15 mM NaF, 0.2 mM PMSF, 1 mM MgCl2 and 4 mg/ml fatty acid-free BSA in a tight-fit glass Dounce homogeniser. Assays were performed in 96-well plates in triplicate with 100 μl cell homogenate (equivalent to 10^5 cells/well). Varying amounts of [^3H] 16:0 LPC or [^3H] SPC were added to cell homogenates in 50 μl of binding buffer in the presence or absence of cold 16:0 LPC or SPC, or other competitors. Plates were incubated at 4° C. for 2 hours, or for the indicated times. Cell-bound [^3H] LPC or [^3H] SPC was collected onto a filter (Printed Filtermat A, Wallac, Gaithersburg, Md.) using an automated cell harvester (HARVESTER 96, Tomtec, Orange, Conn.). A pause wash programme (five cycle washes) was used. Filters were presoaked in 1% polyethyleneimine (Sigma) to prevent nonspecific binding, dried, sealed in bags (Sample Bag, Wallac) with 4.5 ml Betaplate “Scint” scintillation cocktail (Wallac), and counted in a 1450 Microbeta Trilux Liquid Scintillation and Luminescence Counter (Wallac). Specific binding was calculated by subtraction of nonspecific binding (binding detected in the presence of 100-fold excess unlabelled lipid) from total binding.

G2A [2] = target: T1, G2A; assay: Calcium assay ([Ca2+]i, Fura-2) in G2A.GFP transfected MCF 10A cells; type: cell-based
Description: MCF 10A cells were cultured in specialised glass-bottom dishes (Bioptech, Inc., Butler, Pa.) and loaded with Fura-2/AM ([…]; Molecular Probes) at 37° C. for 30 minutes in HEPES buffered saline (pH 7.4) containing 125 mM NaCl, 5 mM KCl, 1.2 mM MgSO4, 11 mM glucose, 1.8 mM CaCl2, 25 mM HEPES, 0.2% BSA. Loaded cells were washed, placed in HEPES buffeted saline without BSA, and incubated for 30 minutes at ambient temperature ensure dye hydrolysis by cytosolic esterases. Using a dual-wavelength spectrofluorometer (RFK-6002, Photon Technology Int'l, So. Brunswick, N.J.) coupled to an inverted fluorescence microscope (Olympus, IX-70, Lake Success, N.Y.), GFP-positive cells were identified using an excitation wavelength of 488 nm, a dichroic 505 nm long-pass and an emitter bandpass of 535 nm (Chroma Technology, Brattleboro, Vt.). [Ca^2+], measurements were performed on individual GFP-positive cells at excitation wavelengths of 340 nm and 380 nm, and an emission wavelength of 510 nm. Prior to data acquisition, background fluorescence (areas without cells) was measured and automatically subtracted from subsequent measurements. Agonists were diluted in HEPES buffered saline and solution changes accomplished by rapidly aspirating the buffer and replacing it with HEPES buffered saline containing the specific agonist. Fura-2 fluorescence signals (340 nm, 380 nm and the 340/380 ratio) originating from individual GFP-positive cells were continuously monitored at a sampling frequency of 25 Hz and collected using a software package from Photon Technology International (Felix™). Conversion of the 340 nm/380 nm ratio value into [Ca^2+]i was estimated by comparing the cellular fluorescence ratio with ratios acquired using Fura-2 (free acid) in buffers containing known Ca^2+ concentrations. [Ca^2+]i was then calculated as described by Grynkiewicz, et al (Grynkiewicz, G, et al, J Biol Chem, 260: pp3440-3450, 1985). All assays were performed in assay buffers containing 1 mM EGTA to exclude measurement of calcium influx.
To address whether G2A is a lysophospholipid receptor, we examined signalling events in cells ectopically expressing G2A as functional correlates of receptor activation. […] [Ca^2+]i measurements were performed in MCF 10A cells transfected with plasmids encoding green fluorescent protein (GFP) tagged G2A (pEXV3 G2A.GFP) (Kabarowski, J H S, et al, PNAS, 97: pp12109-12114, 2000) or GFP as described (Yan Xu and Derek S. Damron, Methods in Molecular Medicine, 39: Ovarian Cancer: Methods and Protocols, pp611-619, 2000). […] Similarly, dose-dependent responses of G2A.GFP transfected cells to SPC were observed, with an EC50 of approximately 0.4 μM (FIG. 4B). […] Responses to these agonists were not affected by G2A.GFP expression (FIG. 4A, middle and lower panels).

- Kd (G2A [1]; Scatchard analysis, saturation binding of [3H] 16:0 LPC or [3H] SPC, 4° C., read-out: dissociation constant (Kd)): 65 nM
- maximum binding capacity (G2A [1]; saturation binding): approximately 1,503 fmole/10^5 cells
- EC50 (G2A [2]; G2A.GFP transfected MCF 10A cells, 1 mM EGTA in buffer, read-out: EC50 of dose-dependent increase in [Ca2+]i): ~100 nM
Substance: lysophosphatidylcholine [LPC]
- transient increase in [Ca2+]i (G2A [2]; G2A.GFP transfected MCF 10A cells, LPC 0.1 μM, SPC 0.1 μM, LPA 1 μM, PAF 0.1 μM, ATP 20 μM): induced a transient increase; also recorded: induce transient [Ca^2+], increases
- desensitisation to subsequent stimulation with LPC or SPC (1 μM) (G2A [2]; pretreatment 5 minutes with LPC 1 μM or SPC 10 μM (b23 prints SPC 1.0 μM), G2A.GFP-transfected MCF 10A cells): induced homologous and heterologous desensitisation
